ChEMBL document CHEMBL1268927, “Antitumor activity of 3,4-dihydroquinazoline dihydrochloride in A549 xenograft nude mice” (Bioorg Med Chem Lett, 2010)

Key:
[1] = Cytotoxicity against human A172 cells by MTT assay; assay type: functional, cell-based, A 172
[2] = Oral bioavailability in Sprague-Dawley rat at 5 mg/kg; assay type: ADME, organism-based; settings: in vivo
Rattus norvegicus [3] = test: Volume of distribution in Sprague-Dawley rat at 5 mg/kg, iv; assay type: ADME, organism-based; set-up: dose 5 mg/kg, route intravenous; settings: in vivo
[4] = Oral bioavailability in Sprague-Dawley rat at 10 mg/kg; assay type: ADME, organism-based; settings: in vivo
Mus musculus [5] = test: Toxicity in BALB/c mouse xenografted with human A549 cells assessed as effect on body weight at 1 to 2 mg/kg, iv QD for 28 days measured post last dose; assay type: organism-based; set-up: dose 1-2 mg/kg, route intravenous; settings: in vivo, 672 h
[6] = Mean residence time in Sprague-Dawley rat at 10 mg/kg, iv; assay type: ADME, organism-based; set-up: dose 10 mg/kg, route intravenous; settings: in vivo
Mus musculus [7] = test: Toxicity in ICR mouse assessed as occurrence of diarrhea at 500 mg/kg, po administered as single dose; assay type: organism-based; set-up: dose 500 mg/kg, route oral; settings: in vivo
Rattus norvegicus [8] = test: Volume of distribution in Sprague-Dawley rat at 10 mg/kg, iv; assay type: ADME, organism-based; set-up: dose 10 mg/kg, route intravenous; settings: in vivo
Mus musculus [9] = test: Toxicity in BALB/c mouse xenografted with human A549 cells assessed as decrease in body weight at 2 mg/kg, iv administered once per 2 days for 4 weeks measured on day 8; assay type: organism-based; set-up: dose 2 mg/kg, route intravenous; settings: in vivo
[10] = AUC in Sprague-Dawley rat at 5 mg/kg, iv; assay type: ADME, organism-based; set-up: dose 5 mg/kg, route intravenous; settings: plasma
Mus musculus [11] = test: Toxicity in ICR mouse assessed as appearance of clinical signs at 250 mg/kg, po administered as single dose; assay type: organism-based; set-up: dose 250 mg/kg, route oral; settings: in vivo
SK-BR-3 = test: Cytotoxicity against human SKBR3 cells by MTT assay; assay type: functional, cell-based
HeLa = test: Cytotoxicity against human HeLa cells by MTT assay; assay type: functional, cell-based
Mus musculus [12] = test: Toxicity in ICR mouse assessed as occurrence of diarrhea at 100 mg/kg, po administered as single dose; assay type: organism-based; set-up: dose 100 mg/kg, route oral; settings: in vivo
[13] = Toxicity in ICR mouse assessed as mortality rate at 250 mg/kg, po administered as single dose; assay type: organism-based; set-up: dose 250 mg/kg, route oral; settings: in vivo, read-out: Activity
Rattus norvegicus [14] = test: Half life in Sprague-Dawley rat at 5 mg/kg, iv; assay type: ADME, organism-based; set-up: dose 5 mg/kg, route intravenous; settings: in vivo
Rattus norvegicus [15] = test: Half life in Sprague-Dawley rat at 10 mg/kg, iv; assay type: ADME, organism-based; set-up: dose 10 mg/kg, route intravenous; settings: in vivo
Mus musculus [16] = test: Toxicity in ICR mouse assessed as occurrence of erosion at 34.6 mg/kg, iv administered as single dose; assay type: organism-based; set-up: dose 34.6 mg/kg, route intravenous; settings: in vivo
Mus musculus [17] = test: Toxicity in ICR mouse assessed as occurrence of panting at 34.6 mg/kg, iv administered as single dose; assay type: organism-based; set-up: dose 34.6 mg/kg, route intravenous; settings: in vivo
MDA-MB-231 = test: Cytotoxicity against human MDA-MB-231 cells by MTT assay; assay type: functional, cell-based
[18] = Mean residence time in Sprague-Dawley rat at 5 mg/kg, iv; assay type: ADME, organism-based; set-up: dose 5 mg/kg, route intravenous; settings: in vivo
A549 [19] = test: Cytotoxicity against human A549 cells by MTT assay; assay type: functional, cell-based
[20] = Toxicity in ICR mouse assessed as mortality rate at 26.6 mg/kg, iv administered as single dose; assay type: organism-based; set-up: dose 26.6 mg/kg, route intravenous; settings: in vivo, read-out: Activity
Mus musculus [21] = test: Toxicity in ICR mouse assessed as occurrence of inanimation at 34.6 mg/kg, iv administered as single dose; assay type: organism-based; set-up: dose 34.6 mg/kg, route intravenous; settings: in vivo
[22] = Toxicity in ICR mouse assessed as mortality rate at 500 mg/kg, po administered as single dose; assay type: organism-based; set-up: dose 500 mg/kg, route oral; settings: in vivo, read-out: Activity
Mus musculus [23] = test: Toxicity in ICR mouse assessed as loss of locomotor activity at 34.6 mg/kg, iv administered as single dose; assay type: organism-based; set-up: dose 34.6 mg/kg, route intravenous; settings: in vivo
Mus musculus [24] = test: Toxicity in ICR mouse assessed as occurrence of panting at 45 mg/kg, iv administered as single dose measured up to 10 mins; assay type: organism-based; set-up: dose 45 mg/kg, route intravenous; settings: in vivo
[25] = Toxicity in ICR mouse assessed as mortality rate at 1000 mg/kg, po administered as single dose; assay type: organism-based; set-up: dose 1000 mg/kg, route oral; settings: in vivo, read-out: Activity
LNCaP = test: Cytotoxicity against human LNCAP cells by MTT assay; assay type: functional, cell-based
[26] = Toxicity in iv dosed ICR mouse administered as single dose; assay type: organism-based; settings: in vivo
Mus musculus [27] = test: Toxicity in ICR mouse assessed as appearance of clinical signs at 26.6 mg/kg, iv administered as single dose; assay type: organism-based; set-up: dose 26.6 mg/kg, route intravenous; settings: in vivo
SK-OV-3 = test: Cytotoxicity against human SKOV3 cells by MTT assay; assay type: functional, cell-based
[28] = Toxicity in ICR mouse assessed as mortality rate at 34.6 mg/kg, iv administered as single dose; assay type: organism-based; set-up: dose 34.6 mg/kg, route intravenous; settings: in vivo, read-out: Activity
Mus musculus [29] = test: Toxicity in ICR mouse assessed as appearance of solid perineal region at 500 mg/kg, po administered as single dose; assay type: organism-based; set-up: dose 500 mg/kg, route oral; settings: in vivo
Mus musculus [30] = test: Toxicity in ICR mouse assessed as occurrence of inanimation at 45 mg/kg, iv administered as single dose measured up to 10 mins; assay type: organism-based; set-up: dose 45 mg/kg, route intravenous; settings: in vivo
Mus musculus [31] = test: Toxicity in ICR mouse assessed as appearance of solid perineal region at 1000 mg/kg, po administered as single dose; assay type: organism-based; set-up: dose 1000 mg/kg, route oral; settings: in vivo
Mus musculus [32] = test: Toxicity in ICR mouse assessed as loss of locomotor activity at 45 mg/kg, iv administered as single dose measured up to 10 mins; assay type: organism-based; set-up: dose 45 mg/kg, route intravenous; settings: in vivo
[33] = AUC in Sprague-Dawley rat at 10 mg/kg, iv; assay type: ADME, organism-based; set-up: dose 10 mg/kg, route intravenous; settings: plasma
A549 [34] = test: Ratio of compound to doxorubicin activity against human A549 cells xenografted in BALB/c mouse at 2 mg/kg, iv; assay type: functional
A549 [35] = test: Antitumor activity against human A549 cells xenografted in BALB/c mouse assessed as inhibition of tumor weight at 2 mg/kg, iv QD for 28 days measured post last dose; assay type: functional; settings: A549, 672 h
[36] = Toxicity in po dosed ICR mouse administered as single dose; assay type: organism-based; settings: in vivo
[37] = Cmax in Sprague-Dawley rat at 5 mg/kg, iv; assay type: ADME, organism-based; set-up: dose 5 mg/kg, route intravenous; settings: in vivo
[38] = Cmax in Sprague-Dawley rat at 10 mg/kg, iv; assay type: ADME, organism-based; set-up: dose 10 mg/kg, route intravenous; settings: in vivo
A549 [39] = test: Antitumor activity against human A549 cells xenografted in BALB/c mouse assessed as inhibition of tumor weight at 1 mg/kg, iv QD for 28 days measured post last dose; assay type: functional; settings: A549, 672 h
Mus musculus [40] = test: Toxicity in ICR mouse assessed as occurrence of erosion at 45 mg/kg, iv administered as single dose measured up to 10 mins; assay type: organism-based; set-up: dose 45 mg/kg, route intravenous; settings: in vivo
A549 [41] = test: Antitumor activity against human A549 cells xenografted in iv dosed BALB/c mouse assessed as inhibition of tumor weight administered QD for 28 days measured post last dose; assay type: functional, organism-based
A549 [42] = test: Antitumor activity against human A549 cells xenografted in BALB/c mouse assessed as inhibition of tumor weight at 2 mg/kg, iv administered once per 2 days for 4 weeks measured post last dose; assay type: functional

CN(C)CCCCCN(C)C1=Nc2ccccc2C(CC(=O)NCc2ccccc2)N1c1ccc(-c2ccccc2)cc1.Cl.Cl (centres undefined)
IC50 ([1]; a 172): 4.61 µM | bioavailability [2]: 98.3% | Vd (Rattus norvegicus [3]): 0.33 L/kg | bioavailability [4]: 70.1% | Activity (Mus musculus [5]): Non-toxic | MRT [6]: 7.19 h | Activity (Mus musculus [7]): Toxic | Vd (Rattus norvegicus [8]): 0.61 L/kg | Activity (Mus musculus [9]): Toxic | AUC [10]: 128 µg·h/mL | Activity (Mus musculus [11]): Non-toxic | IC50 (SK-BR-3; sk-br-3): 1830 nM | IC50 (HeLa; hela): 3.11 µM | Activity (Mus musculus [12]): Toxic | mortality [13]: 0% | t1/2 (Rattus norvegicus [14]): 522.96 min | t1/2 (Rattus norvegicus [15]): 1192.29 min | Activity (Mus musculus [16]): Toxic | Activity (Mus musculus [17]): Toxic | IC50 (MDA-MB-231; mda-mb-231): 1640 nM | MRT [18]: 5.09 h | IC50 (A549 [19]; a549): 5 µM | mortality [20]: 0% | Activity (Mus musculus [21]): Toxic | mortality [22]: 40% | Activity (Mus musculus [23]): Toxic | Activity (Mus musculus [24]): Toxic | mortality [25]: 80% | IC50 (LNCaP; lncap): 5.19 µM | LD50 [26]: 40 mg/kg | Activity (Mus musculus [27]): Toxic | IC50 (SK-OV-3; sk-ov-3): 5.22 µM | mortality [28]: 20% | Activity (Mus musculus [29]): Toxic | Activity (Mus musculus [30]): Toxic | Activity (Mus musculus [31]): Toxic | Activity (Mus musculus [32]): Toxic | AUC [33]: 279 µg·h/mL | Ratio (A549 [34]): 1.6 | inhibition in vivo at 2 mg/kg (A549 [35]): 49% | LD50 [36]: 693 mg/kg | Cmax [37]: 460 ng/mL | Cmax [38]: 1030 ng/mL | inhibition in vivo at 1 mg/kg (A549 [39]): 29% | Activity (Mus musculus [40]): Toxic

CN(C)CCCCCN(C)C1=Nc2ccccc2C(CC(=O)NCc2ccccc2)N1c1ccc(-c2ccccc2)cc1 (centres undefined) [listing 1 of 2 here]
inhibition (A549 [41]): Dose-dependent effect

COc1cccc2c1C(=O)c1c(O)c3c(c(O)c1C2=O)C[C@@](O)(C(=O)CO)C[C@@H]3O[C@H]1C[C@H](N)[C@H](O)[C@H](C)O1 [DOXORUBICIN]
inhibition in vivo at 2 mg/kg (A549 [42]): 30%

CN(C)CCCCCN(C)C1=Nc2ccccc2C(CC(=O)NCc2ccccc2)N1c1ccc(-c2ccccc2)cc1 (centres undefined) [listing 2 of 2 here]
IC50 ([1]; Homo sapiens, A 172): 4.83 µM | IC50 (SK-BR-3; Homo sapiens, SK-BR-3): 2170 nM | IC50 (HeLa; Homo sapiens, HeLa): 4.04 µM | IC50 (MDA-MB-231; Homo sapiens, MDA-MB-231): 2650 nM | IC50 (A549 [19]; Homo sapiens, A549): 5.17 µM | IC50 (LNCaP; Homo sapiens, LNCaP): 4.7 µM | IC50 (SK-OV-3; Homo sapiens, SK-OV-3): 5 µM
